According to patent US6114517A, “Methods of modulating tumor necrosis factor α-induced expression of cell adhesion molecules” (Isis Pharmaceuticals Inc., priority 1998, dated 2000):

Key:
Assay type in all cases: cell-based, human
Ha-ras mRNA = Ha-ras mRNA levels by Northern blot in HMVEC
Procedure: Human dermal microvascular cells (HMVEC-d; Clonetics, San Diego, Calif.) were cultivated in endothelial basal media (EBM, Clonetics) supplemented with 10% fetal bovine serum (HyClone, Logan, Utah). Cells were grown in 100 mm petri dishes until 70-80% confluent, then washed with PBS and OPTI-MEM (Life Technologies, Inc., Gaithersburg, Md.). The cells were then incubated in the presence of OPTI-MEM and […] LIPOFECTIN (a 1:1 (w/w) liposome formulation of the cationic lipid N-[1-(2,3-dioleyloxy)propyl]-n,n,n-trimethylammonium chloride (DOTMA), and dioleoyl phosphotidylethanolamine (DOPE) in membrane filtered water (Life Technologies, Gaithersburg, Md.), per 100 nM of oligonucleotide followed by addition of oligonucleotide at the appropriate concentrations.
For determination of mRNA levels by Northern blot, total RNA was prepared from cells by the guanidinium isothiocyanate procedure or by the Qiagen RNAEASY method (Qiagen, Santa Clarita, Calif.) at the indicated times after initiation of oligonucleotide treatment. Northern blot analysis was performed as described in Current Protocols in Molecular Biology (Ausubel, F. M., et al., (eds), 1987, Greene Publishing Assoc. and Wiley Interscience, New York). A glyceraldehyde 3-phosphate dehydrogenase (G3PDH) probe was purchased from Clontech (Palo Alto, Calif., Catalog Number 9805-1). RNA was quantified and normalized to G3PDH mRNA levels using a Molecular Dynamic PHOSPHORIMAGER (Sunnyvale, Calif.).
ISIS 15168 (SEQ ID NO. 4) is a 2'-O-methoxyethyl mixed backbone chimeric antisense oligonucleotide designed to hybridize with sequences contained within the human Ha-ras mRNA. To determine the effect of ISIS 15168 (SEQ ID NO. 4) on Ha-ras expression in endothelial cells, HMVEC were treated, as described in Example 2, with oligonucleotide and northern blotting was used to measure Ha-ras mRNA levels. A Ha-ras probe was generated from the plasmid, pbc-N1 (American Type Culture Collection, Manassas, Va.; catalog #41001), following the supplied instructions.

Ha-ras protein = Ha-ras protein levels, immunoprecipitation and Western blot in HMVEC; details: for Ha-ras protein expression: 48 hours following treatment
Procedure: (§1) For determination of protein levels by Western blot, cellular extracts were prepared using […] of RIPA extraction buffer per 100-mm dish. The protein concentration was quantified by Bradford assay using the BioRad kit (BioRad, Hercules, Calif.). Equal amounts of protein were loaded on 10% or 12% SDS-PAGE mini-gel (Novex, San Diego, Calif.). Once transferred to PVDF membranes (Millipore, Bedford, Mass.), the membranes were then treated for a minimum of 2 hours with specific primary antibody followed by incubation with secondary antibody conjugated to HRP. The results were visualized by Enhanced Chemiluminescent (ECL) detection (New England BioLab, Beverly, Mass.). In some experiments, the blots were stripped in stripping buffer (2% SDS, 12.5 mM Tris, pH 6.8) for 30 minutes at 50° C. After extensive washing, the blots were blocked and blotted with different primary antibody.
(§2) To examine the effect of ISIS 15168 (SEQ ID NO. 4) on Ha-ras protein levels, total ras protein was immunoprecipitated using a pan-ras monoclonal antibody (Oncogene Science, Cambridge, Mass.). The precipitated proteins were analyzed by SDS-PAGE, and Ha-ras protein levels were determined by western blot using a monoclonal antibody specific for Ha-ras (Oncogene Science, Cambridge, Mass.). […] The kinetics of Ha-ras reduction was slower than that of c-raf. The control oligonucleotide, ISIS 17552 (SEQ ID NO. 5), had no effect on Ha-ras protein level. The same blot was stripped and blotted a second time with a Ki-ras-specific antibody (Oncogene Science, Cambridge, Mass.).

Ki-ras protein = Ki-ras protein levels by Western blot in HMVEC; details: same blot stripped and blotted with Ki-ras-specific antibody
Procedure: as §1
as §2, with “The control oligonucleotide, ISIS 17552 (SEQ ID NO. 5), had no effect on Ha-ras protein level. The same blot was stripped and blotted a second time with a Ki-ras-specific antibody (Oncogene Science, Cambridge, Mass.).” left out

c-raf protein = c-raf protein levels by Western blot in HMVEC
Procedure: as §1
ISIS 12854 (SEQ ID NO. 2) is a 2'-O-methoxyethyl mixed backbone chimeric antisense oligonucleotide designed to hybridize with 3'-untranslated sequences contained within human c-raf mRNA. To determine whether this antisense oligonucleotide is effective as a c-raf inhibitor in endothelial cells, human dermal microvascular cells (HMVEC) were treated with ISIS 12854 (SEQ ID NO. 2) as described in Example 2. C-raf mRNA and protein expression was examined by northern and Western blot analysis. The c-raf cDNA probe was generated from the plasmid, p627 (American Type Culture Collection, Manassas, Va.; catalog #41050), following the supplied instructions. The c-raf antibody was obtained from Transduction Laboratories, Inc. (Lexington, Ky.).

A-raf protein = A-raf protein expression by Western blot in HMVEC; details: same blot stripped and blotted with antibody against A-raf
Procedure: as §1
Reduction of c-raf protein levels also occurred following oligonucleotide treatment. Reduction in protein expression was first detectable 24 hours after treatment and maximal reduction of c-raf protein levels was achieved 48 hours after treatment with 150 nM oligonucleotide. Reduction of c-raf protein levels persisted up to 72 hour following initial treatment.

Row | Substance | % mRNA Expression (Ha-ras) (Ha-ras mRNA; 1 nM) | % mRNA Expression (Ha-ras) (Ha-ras mRNA; 5 nM) | % mRNA Expression (Ha-ras) (Ha-ras mRNA; 25 nM) | % mRNA Inhibition (Ha-ras) (Ha-ras mRNA; 25 nM) | % mRNA Expression (Ha-ras) (Ha-ras mRNA; 50 nM) | % mRNA Expression (Ha-ras) (Ha-ras mRNA; 100 nM) | Ha-ras protein expression (Ha-ras protein) | effect on Ki-ras protein levels (Ki-ras protein) | time of maximal reduction of c-raf protein levels (c-raf protein; after treatment with 150 nM oligonucleotide) | time at which reduction in c-raf protein expression was first detectable (c-raf protein; after treatment, Western blot) | persistence of reduction of c-raf protein levels (c-raf protein; following initial treatment) | A-raf protein expression (A-raf protein) | % mRNA Inhibition (Ha-ras) (Ha-ras mRNA; 1 nM) | % mRNA Inhibition (Ha-ras) (Ha-ras mRNA; 5 nM) | % mRNA Inhibition (Ha-ras) (Ha-ras mRNA; 50 nM) | % mRNA Inhibition (Ha-ras) (Ha-ras mRNA; 100 nM) | persistence of reduction of Ha-ras protein (Ha-ras protein; following initial treatment)
1 | ToCoAsGsTsAsAsTsAsGsCsCsCoCoAoCoAoToGoG [ISIS 17552, reference compound] | 103% | 115% | 96% | 4% | 109% | 105% | no effect | No effect | – | – | – | – | – | – | – | – | –
2 | ToCoCoCoGoCsCsTsGsTsGsAsCsAsToGoCoAoToT [ISIS 12854] | – | – | – | – | – | – | – | – | 48 h | 24 h | up to 72 hour | largely unaffected | – | – | – | – | –
3 | ToCoCsGsTsCsAsTsCsGsCsTsCoCoToCoAoGoGoG [ISIS 15168] | 61% | 44% | 19% | 81% | 10% | 9% | dose-dependent reduction | No effect | – | – | – | – | 39% | 56% | 90% | 91% | up to 72 hours
